In the experiment the target is human PDHK2 (hPDHK2) (Homo sapiens (Human), UniProt Q15119). Description: Inhibitory action of PDHK activity in vitro (kinase reaction, residual PDH activity measured). It counts as biochemical.
The mark [1] stands for this setting: PDHK inhibitory activity, class symbol of IC50.
Where [2] appears, read: read-out: PDHK inhibitory activity IC50.
The mark [3] stands for this setting: PDHK inhibitory activity (class symbol).
The mark [4] stands for this setting: class symbol of IC50, read-out: PDHK inhibitory activity.

Like-named read-outs stand apart in the source and are kept apart here.

The record followed here is US8871934B2, “Fluorene compound and pharmaceutical use thereof” (Japan Tobacco Inc., priority 2008, dated 2014).

`OC1(C(F)(F)F)c2ccccc2-c2ccc(N3CCOCC3)cc21` (stereo not shown) [compound 161]: the IC50 was more than 1 µM under setting [1] and 2.11 µM under setting [2].
On to `OCCn1cc(-c2cc(Cl)cc3c2-c2ccccc2C3(O)C(F)(F)F)cn1` (stereo not shown) [compound 460], for which the IC50 under setting [1] is less than 0.1 µM and the IC50 under setting [2] is 0.03 µM.
Turning to `CN1CCN(c2ccc3c(c2)C(O)(C(F)(F)F)c2ccccc2-3)CC1` (stereo not shown) [compound 162], the IC50 reads like this: under setting [1], more than 1 µM; under setting [2], 2.89 µM.
Taken in the same sequence, the figures for `OC1(C(F)(F)F)c2ccccc2-c2ccc(Cc3ccccc3)cc21` (stereo not shown) [compound 317] were more than 1 µM and 2.31 µM.
On to `CC(=O)c1cc(C(=O)N2CCC2)cc2c1-c1ccccc1C2(O)C(F)(F)F` (stereo not shown) [compound 122], for which the IC50 under setting [1] was less than 0.1 µM and the IC50 under setting [2] came out at 0.049 µM.
Take `CCOc1cc(-c2cnn(CCCC(=O)O)c2)c2c(c1)C(O)(C(F)(F)F)c1ccccc1-2` (single isomer, unassigned) [compound 582]: the IC50 under setting [1] was less than 0.1 µM and the IC50 under setting [2] is 0.021 µM.
`Cc1ccc2c(c1)C(O)(C(F)(F)F)c1ccccc1-2` (stereo not shown) [compound 3]: the IC50 under setting [1] is more than 1 µM and the IC50 under setting [2] is 1.57 µM.
For the compound `CC(=O)N(C)CCOc1cc(-c2cncnc2)c2c(c1)C(O)(C(F)(F)F)c1ccccc1-2` (stereo not shown) [compound 422], the IC50 is less than 0.1 µM under setting [1] and 0.023 µM under setting [2].
The like results for `O=C(COc1ccc2c(c1)C(O)(C(F)(F)F)c1ccccc1-2)N1CCOCC1` (stereo not shown) [compound 362] were, in that order, more than 1 µM and 1.08 µM.
Turning to `CC(=O)N(CCOc1ccc2c(c1)C(O)(C(F)(F)F)c1ccccc1-2)CCC(=O)O` (stereo not shown) [compound 443], the IC50 is, setting by setting: under setting [1], more than 1 µM; under setting [2], 1.15 µM.
On to `OC1(C(F)(F)F)c2ccccc2-c2c(C(F)(F)F)cccc21` (stereo not shown) [compound 64], for which the IC50 reads like this: under setting [1], more than 1 µM; under setting [2], 18 µM.
The like results for `O=C1CCC(COc2ccc3c(c2)C(O)(C(F)(F)F)c2ccccc2-3)N1CCO` (stereo not shown) [compound 432] were, in that order, 0.1 to 1 µM and 0.247 µM.
For `CC(C)(C)CCc1cc(-c2cnn(C(CO)CO)c2)c2c(c1)C(O)(C(F)(F)F)c1ccccc1-2` (stereo not shown) [compound 666], the IC50 was less than 0.1 µM under setting [3] and 0.027 µM under setting [2].
In the case of `CN(C)C(=O)C1CCCN1C(=O)c1ccc2c(c1)C(O)(C(F)(F)F)c1ccccc1-2` (stereo not shown) [compound 178], the IC50 is, setting by setting: under setting [1], more than 1 µM; under setting [2], more than 10 µM.
`OC1(C(F)(F)F)c2ccccc2-c2ccc(-c3ccc(Cl)cc3)cc21` (stereo not shown) [compound 179]: the IC50 by setting is: under setting [1], more than 1 µM; under setting [2], 1.34 µM.
The like results for `CN(C)C(=O)c1ccccc1-c1ccc2c(c1)C(O)(C(F)(F)F)c1ccccc1-2` (stereo not shown) [compound 184] were, in that order, more than 1 µM and more than 10 µM.
On to `OC1(C(F)(F)F)c2ccccc2-c2cc(Cl)ccc21` (stereo not shown) [compound 9], for which the IC50 is, setting by setting: under setting [1], more than 1 µM; under setting [2], 20 µM.
The like results for `O=C(O)CCn1cc(-c2cnc3c(c2)C(O)(C(F)(F)F)c2ccccc2-3)cn1` (stereo not shown) [compound 568] were, in that order, less than 0.1 µM and 0.083 µM.
For `CC(=O)NCCCOc1ccc2c(c1)C(O)(C(F)(F)F)c1ccccc1-2` (stereo not shown) [compound 340], the IC50 reads like this: under setting [1], more than 1 µM; under setting [2], 1.59 µM.
Regarding `O=C(c1ccc2c(c1)C(O)(C(F)(F)F)c1ccccc1-2)N1CC(C(=O)N2CCC(O)CC2)C1` (stereo not shown) [compound 203], the IC50 is, setting by setting: under setting [1], 0.1 to 1 µM; under setting [2], 0.423 µM.
The like results for `N#Cc1ccc(-c2ccc3c(c2)C(O)(C(F)(F)F)c2ccccc2-3)cc1` (stereo not shown) [compound 224] were, in that order, 0.1 to 1 µM and 0.214 µM.
The like results for `Cn1cc(-c2cc(C(=O)N3CCC(CO)C3)cc3c2-c2ccccc2C3(O)C(F)(F)F)cn1` (stereo not shown) [compound 394] were, in that order, less than 0.1 µM and 0.058 µM.
`Nc1ccc2c(c1)-c1ccccc1C2(O)C(F)(F)F` (stereo not shown) [compound 26]: the IC50 under setting [1] was more than 1 µM and the IC50 under setting [2] came out at 17.6 µM.
On to `Cc1cccc2c1-c1ccccc1C2(O)C(F)(F)F` (stereo not shown) [compound 2], for which the IC50 is more than 1 µM under setting [1] and 2.29 µM under setting [2].
The like results for `OC1(C(F)(F)F)c2ccccc2-c2ccc(-c3cccc(Cl)c3)cc21` (stereo not shown) [compound 132] were, in that order, 0.1 to 1 µM and 0.694 µM.
The like results for `CNC(=O)COc1ccc2c(c1)C(O)(C(F)(F)F)c1ccccc1-2` (stereo not shown) [compound 289] were, in that order, 0.1 to 1 µM and 0.641 µM.
The like results for `Cc1ccc2c(c1)C(O)(C(F)(F)F)c1cccc(C)c1-2` (stereo not shown) [compound 17] were, in that order, more than 1 µM and 13.9 µM.
Take `Oc1cccc2c1-c1ccccc1C2(O)C(F)(F)F` (stereo not shown) [compound 63]: the IC50 runs as follows: under setting [1], more than 1 µM; under setting [2], 8.48 µM.
The like results for `CN(C)CCOc1ccc2c(c1)C(O)(C(F)(F)F)c1ccccc1-2` (stereo not shown) [compound 322] were, in that order, more than 1 µM and 2.5 µM.
Turning to `Cn1cc(-c2ccc3c(c2)C(O)(C(F)(F)F)c2ccccc2-3)cn1` (stereo not shown) [compound 377], the IC50 by setting is: under setting [1], 0.1 to 1 µM; under setting [2], 0.189 µM.
Taken in the same sequence, the figures for `O=C(O)CCn1cc(-c2cccc3c2-c2ccccc2C3(O)C(F)(F)F)cn1` (stereo not shown) [compound 485] were 0.1 to 1 µM and 0.117 µM.
As for `CC(C)CCOc1ccc2c(c1)C(O)(C(F)(F)F)c1ccccc1-2` (stereo not shown) [compound 276], the IC50 by setting is: under setting [1], more than 1 µM; under setting [2], 1.01 µM.
The like results for `CN(C)C(=O)C1CN(C(=O)c2cc(Cl)c3c(c2)C(O)(C(F)(F)F)c2ccccc2-3)C1` (stereo not shown) [compound 329] were, in that order, less than 0.1 µM and 0.066 µM.
For `C/C=C/c1cc(-c2cnn(C(CO)CO)c2)c2c(c1)C(O)(C(F)(F)F)c1ccccc1-2` (stereo not shown) [compound 651], the IC50 is less than 0.1 µM under setting [3] and 0.025 µM under setting [2].
For `CCCCN(C)C(=O)c1ccc2c(c1)C(O)(C(F)(F)F)c1ccccc1-2` (stereo not shown) [compound 308], the IC50 is more than 1 µM under setting [1] and 2.67 µM under setting [2].
Taken in the same sequence, the figures for `CN(C)C(=O)c1ccc2c(c1)C(O)(C(F)(F)F)c1ccccc1-2` (stereo not shown) [compound 31] were more than 1 µM and 1.35 µM.
As for `CNCc1ccc2c(c1)C(O)(C(F)(F)F)c1ccccc1-2` (stereo not shown) [compound 417], the IC50 under setting [4] was more than 1 µM and the IC50 under setting [2] was more than 1 µM.
Consider `COC(=O)c1cccc2c1-c1cc(F)ccc1C2(O)C(F)(F)F` (stereo not shown) [compound 220], for which the IC50 by setting is: under setting [1], 0.1 to 1 µM; under setting [2], 0.488 µM.
`NC(=O)c1ccc2c(c1)C(O)(C(F)(F)F)c1ccccc1-2` (stereo not shown) [compound 29]: the IC50 is more than 1 µM under setting [1] and 5.74 µM under setting [2].
In the case of `Cc1cc(C(=O)NCCCCO)cc2c1-c1ccccc1C2(O)C(F)(F)F` (stereo not shown) [compound 338], the IC50 under setting [4] is more than 1 µM and the IC50 under setting [2] is more than 1 µM.
For the compound `O=C1CCCN1CCOc1cc(-c2cnn(CCO)c2)c2c(c1)C(O)(C(F)(F)F)c1ccccc1-2` (stereo not shown) [compound 484], the IC50 by setting is: under setting [1], less than 0.1 µM; under setting [2], 0.024 µM.
With `CCn1cc(-c2cc(CO)c3c(c2)C(O)(C(F)(F)F)c2ccccc2-3)cn1` (stereo not shown) [compound 618], the IC50 under setting [3] was less than 0.1 µM and the IC50 under setting [2] turned out to be 0.056 µM.
With `CC(Oc1ccc2c(c1)C(O)(C(F)(F)F)c1ccccc1-2)C(=O)O` (stereo not shown) [compound 413], the IC50 was more than 1 µM under setting [1] and 1.23 µM under setting [2].
`OC1(C(F)(F)F)c2ccccc2-c2ccc(Cl)cc21` (stereo not shown) [compound 5]: the IC50 under setting [1] was more than 1 µM and the IC50 under setting [2] amounted to 1.17 µM.
Taken in the same sequence, the figures for `OC[C@H](O)Cn1cc(-c2cc(F)cc3c2-c2ccccc2C3(O)C(F)(F)F)cn1` (single isomer, unassigned) [compound 566] were less than 0.1 µM and 0.021 µM.
As to `COC(=O)c1cc(Cl)cc2c1-c1ccccc1C2(O)C(F)(F)F` (stereo not shown) [compound 616], the IC50 is 0.1 to 1 µM under setting [3] and 0.192 µM under setting [2].
`CCCc1ccc2c(c1)C(O)(C(F)(F)F)c1ccccc1-2` (stereo not shown) [compound 70]: the IC50 reads like this: under setting [1], more than 1 µM; under setting [2], 2.21 µM.
Take `O=C(COc1cc(-c2cnn(CCO)c2)c2c(c1)C(O)(C(F)(F)F)c1ccccc1-2)N1CCC1` (stereo not shown) [compound 496]: the IC50 under setting [1] is less than 0.1 µM and the IC50 under setting [2] stood at 0.023 µM.
Taken in the same sequence, the figures for `COCc1cccc2c1-c1ccccc1C2(O)C(F)(F)F` (stereo not shown) [compound 82] were more than 1 µM and 67.3 µM.
On to `O=C1CC[C@H](COc2ccc3c(c2)C(O)(C(F)(F)F)c2ccccc2-3)N1` (stereo partly shown) [compound 445], for which the IC50 was 0.1 to 1 µM under setting [1] and 0.605 µM under setting [2].
The like results for `CN(C)CCCOc1ccc2c(c1)C(O)(C(F)(F)F)c1ccccc1-2` (stereo not shown) [compound 333] were, in that order, 0.1 to 1 µM and 0.924 µM.
`COc1cc(-c2cnn(CC(C)(C)C(=O)O)c2)c2c(c1)C(O)(C(F)(F)F)c1ccccc1-2` (single isomer, unassigned) [compound 619]: the IC50 is, setting by setting: under setting [3], less than 0.1 µM; under setting [2], 0.033 µM.
Take `Cc1ccc2c(c1)C(O)(C(F)(F)F)c1cccnc1-2` (stereo not shown) [compound 16]: the IC50 under setting [1] is more than 1 µM and the IC50 under setting [2] was found to be 19.3 µM.
Taken in the same sequence, the figures for `COc1ccc2c(c1)C(O)(C(F)(F)F)c1ccccc1-2` (stereo not shown) [compound 37] were more than 1 µM and 3.96 µM.
Regarding `COc1cc(CO)c2c(c1)C(O)(C(F)(F)F)c1ccccc1-2` (stereo not shown) [compound 627], the IC50 (read-out: PDHK inhibitory activity (class symbol)) is more than 1 µM and the IC50 under setting [2] was more than 1 µM.
For `COC(=O)C1CCN(C(=O)c2ccc3c(c2)C(O)(C(F)(F)F)c2ccccc2-3)C1` (stereo not shown) [compound 206], the IC50 runs as follows: under setting [1], more than 1 µM; under setting [2], 2.24 µM.
The like results for `CN(C)C(=O)CCOc1cc(-c2cnn(C)c2)c2c(c1)C(O)(C(F)(F)F)c1ccccc1-2` (stereo not shown) [compound 455] were, in that order, less than 0.1 µM and 0.026 µM.
In the case of `NC(=O)c1cc(CCCN2CCCC2=O)cc2c1-c1ccccc1C2(O)C(F)(F)F` (stereo not shown) [compound 655], the IC50 under setting [3] was less than 0.1 µM and the IC50 under setting [2] was determined as 0.073 µM.
For the compound `O=C1CCCCN1CCOc1ccc2c(c1)C(O)(C(F)(F)F)c1ccccc1-2` (stereo not shown) [compound 416], the IC50 is, setting by setting: under setting [1], 0.1 to 1 µM; under setting [2], 0.104 µM.
